Measurements from the supplement of paper PMC11208160.

test: recombinant barcode read abundance after kanamycin selection (control-corrected) (log10(CPM+1)); higher = more efficient recombination; sequences stand for … in AGTGCAGAGAAAATCGGCCAGTTTTCTCTGCCTGCAGTCCGCATGCCGT…AGATTTATGCAGCGGACTGCCTTTCTCCCAAAGTGATAAACCGGACAGTATCATGGACCGGTTTTCCCGGTAATCCGTATTTGCAAGGTTGGTTTCACT; site = the 11-nt target
Procedure: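 Pooled E. coli target-specificity screen for the IS621 bridge recombinase. Each library plasmid pairs an 11-nt target (CT core) with a bridge RNA whose target-binding loop (9-nt LTG + 4-nt RTG) is reprogrammed; the rest of the 177-nt WT IS621 bridge RNA scaffold is fixed. The plasmid is co-electroporated with a WT donor plasmid; recombinase is induced with 0.1 mM IPTG and recombinants are selected on kanamycin. Recombinant barcodes are sequenced, converted to CPM, averaged over two biological replicates and corrected by the unselected control CPM. Molecule = full bridge RNA written as DNA: LTG = specificity nt 1-9, RTG = reverse complement of specificity nt 8-11, in the WT scaffold.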
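Note: IS621 recombinase and bridge RNA in Escherichia coli cells.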

Sequence	recombinant barcode read abundance (log10)
AGTCGTACTTGGGTTCTAACCTGTTGCCT (site AGGCGTACTAG)	0.0589
TCTAGACCTTGGGTTCTAACCTGTTGCCT (site TCTAGATCTAG)	0.03
GCCGTAGCTTGGGTTCTAACCTGTTGCCT (site GCCGTAGCTAG)	0.0284
ATAAGAGCTTGGGTTCTAACCTGTTGCCT (site ATAACAGCTAG)	0.0202
TAGAATCCTTGGGTTCTAACCTGTTGCAA (site TAGAATCCTGT)	0.116
TACCACTCTTGGGTTCTAACCTGTTGCCT (site TACCACTCTAG)	2.24
GAGAGAGCTTGGGTTCTAACCTGTTGCAT (site GAGAGAGCTAT)	1.41
ACCCAGCCTTGGGTTCTAACCTGTTGCCT (site ACCCAGCCTAC)	1.27
TGAGCACCTTGGGTTCTAACCTGTTGCCT (site AGAGGACCTAG)	0.158
CTCCGCCCTTGGGTTCTAACCTGTTGCTT (site CTCCGGCCTAA)	0.106
GGGAACCCTTGGGTTCTAACCTGTTGCTA (site GGGAACCCTTA)	1.29
GCACTACCTTGGGTTCTAACCTGTTGCCT (site GCACCACCTAG)	0.534
ATATGTGCTTGGGTTCTAACCTGTTGCCG (site ATATGAGCTCG)	0.0211
TCTCCAGCTTGGGTTCTAACCTGTTGCCT (site TCTCCAGCTAG)	1.13
AATCTCCCTTGGGTTCTAACCTGTTGCCT (site AATATGCCTAG)	0.298
ATCGAGTCTTGGGTTCTAACCTGTTGCCT (site AGCGAGTCTAG)	0.734
ACCCTTACTTGGGTTCTAACCTGTTGCCT (site AACCTTACTAG)	0.0611
ACCCAGCCTTGGGTTCTAACCTGTTGCCT (site ACCCAGCCTAA)	0.146
ACACTGGCTTGGGTTCTAACCTGTTGCCT (site ACCCTGGCTAG)	0.0877
TCCGGTACTTGGGTTCTAACCTGTTGCAT (site TCCAGTACTAT)	0.369
CGTGGAGCTTGGGTTCTAACCTGTTGCCA (site CGTGGAGCTTG)	0.836

Sequence	recombinant barcode read abundance (log10)
GACGTAACTTGGGTTCTAACCTGTTGCCT (site GACGTAACTAG)	0.508
TCCAGTCCTTGGGTTCTAACCTGTTGCTA (site TCCATCCCTTA)	0.0632
TTAGTTGCTTGGGTTCTAACCTGTTGCCT (site TTAGTGGCTAG)	0.0286
TGCTCCTCTTGGGTTCTAACCTGTTGCCT (site GGCTCCTCTAG)	0.109
GGTAGGACTTGGGTTCTAACCTGTTGCCT (site TGTAGGACTAG)	0.0335
ACCAGCCCTTGGGTTCTAACCTGTTGCTG (site ACCAGCCCTCA)	1.38
CTCTTCCCTTGGGTTCTAACCTGTTGCTT (site CTCTTCCCTAA)	0.594
AACAGGTCTTGGGTTCTAACCTGTTGCCT (site ACCAGGTCTAG)	0.175
GCCACGCCTTGGGTTCTAACCTGTTGCAG (site GCCGCGCCTCT)	0.053
TTAGCATCTTGGGTTCTAACCTGTTGCCT (site TTAGCCTCTAG)	0.412
AGGGCGTCTTGGGTTCTAACCTGTTGCCG (site AGGGCGTCTCG)	1.69
GTAGTAGCTTGGGTTCTAACCTGTTGCCT (site GTAGTATCTAG)	0.492
ACCTTGCCTTGGGTTCTAACCTGTTGCCT (site ACGTTGCCTAG)	0.875
TTAGAGGCTTGGGTTCTAACCTGTTGCCT (site TTAGAGCCTAG)	0
ATCTTATCTTGGGTTCTAACCTGTTGCCT (site ATCTTATCTAG)	0.208
CCGATATCTTGGGTTCTAACCTGTTGCCT (site CCGATATCTAG)	0.287
TGCTCCTCTTGGGTTCTAACCTGTTGCCT (site AGCTCCTCTAG)	0.0656
AAGCCCACTTGGGTTCTAACCTGTTGCGG (site CGCGTTGCTAG)	0.561
GACGTAACTTGGGTTCTAACCTGTTGCCT (site GATGTAACTAG)	0.163
CATGGGCCTTGGGTTCTAACCTGTTGCCT (site CATGGGCCTAG)	0.0279
GAGAAGCCTTGGGTTCTAACCTGTTGCCT (site TAGAAGCCTAG)	0.639

Sequence	recombinant barcode read abundance (log10)
GAGGGTCCTTGGGTTCTAACCTGTTGCGT (site GAGGGTCCTAG)	1.86
CTCCATCCTTGGGTTCTAACCTGTTGCCT (site CTCCATACTAG)	0
CGTAAACCTTGGGTTCTAACCTGTTGCGT (site CGTAAACCTAC)	0.451
CCTCTGCCTTGGGTTCTAACCTGTTGCCT (site CGTCTCCCTAG)	0.103
TACCTATCTTGGGTTCTAACCTGTTGCGT (site TACCTAGCTAC)	0.0617
AGGAACTCTTGGGTTCTAACCTGTTGCTT (site AGGAACTCTAA)	1.87
TCCCAAACTTGGGTTCTAACCTGTTGCAC (site TCCCAAACTGT)	0.657
CCAGATTCTTGGGTTCTAACCTGTTGCCT (site CTAGATTCTAG)	0.144
CGGATTGCTTGGGTTCTAACCTGTTGCCT (site CGGATGGCTAG)	0.122
CTCAAGACTTGGGTTCTAACCTGTTGCGG (site CTCTAGACTCA)	0.219
TCATTCGCTTGGGTTCTAACCTGTTGCCT (site TCATTCGCTAG)	0.857
TAGAAGGCTTGGGTTCTAACCTGTTGCTT (site TAGAAGGCTAT)	0.28
CGTATGACTTGGGTTCTAACCTGTTGCCT (site TGTATGACTAG)	0.05
ATTCGGGCTTGGGTTCTAACCTGTTGCGT (site ATTCGGGCTAC)	2.07
AGCGCTCCTTGGGTTCTAACCTGTTGCCT (site AGCGCTCCTAG)	0.68
AATTTAGCTTGGGTTCTAACCTGTTGCCT (site AATTAAGCTAG)	0.172
GGGTCCTCTTGGGTTCTAACCTGTTGCCA (site GGGTCCTCTTG)	1.29
AATGTGTCTTGGGTTCTAACCTGTTGCCT (site AACGTGTCTAG)	1.47
CTGAGGACTTGGGTTCTAACCTGTTGCCT (site ATGAGGACTAG)	0.0813
CATGGGCCTTGGGTTCTAACCTGTTGCCT (site CTTGGGCCTAG)	0.174
CCAGTAGCTTGGGTTCTAACCTGTTGCGG (site CCAGAAGCTAC)	0.0355

Sequence	recombinant barcode read abundance (log10)
GCACAGTCTTGGGTTCTAACCTGTTGCTT (site CCATAGTCTAA)	0.0514
CTAAGCTCTTGGGTTCTAACCTGTTGCTT (site CTAAGCTCTTA)	0.107
GACTATTCTTGGGTTCTAACCTGTTGCCT (site GATTATTCTAG)	0.178
ACATCAACTTGGGTTCTAACCTGTTGCCT (site ACATCAACTAG)	0.807
TCCGACTCTTGGGTTCTAACCTGTTGCCG (site TCCTACTCTCG)	0.122
GGACCCTCTTGGGTTCTAACCTGTTGCCT (site TGACCCTCTAG)	0.353
TACCACTCTTGGGTTCTAACCTGTTGCCT (site AACCACTCTAG)	0.335
TTAGTTGCTTGGGTTCTAACCTGTTGCCT (site TTAGTTGCTAG)	1.4
GTATCTACTTGGGTTCTAACCTGTTGCCT (site GCATCTACTAG)	0.0197
ATCCCATCTTGGGTTCTAACCTGTTGCCT (site ATCCCATCTAG)	0.619
AGCAGAGCTTGGGTTCTAACCTGTTGCGG (site AGCAGAGCTCG)	0.0598
ATAGGGACTTGGGTTCTAACCTGTTGCCT (site GTAGCGACTAG)	0.177
ATCTTATCTTGGGTTCTAACCTGTTGCCT (site ATCTTACCTAG)	0.262
GGTTTAGCTTGGGTTCTAACCTGTTGCTA (site TGTATAGCTTA)	0.0842
TCCGCTGCTTGGGTTCTAACCTGTTGCCT (site TCCGCTACTAG)	0.151
GCTTCGGCTTGGGTTCTAACCTGTTGCCT (site GCTTCGGCTAG)	0.282
GGGTAACCTTGGGTTCTAACCTGTTGCCT (site GGGTAACCTAG)	0.406
ACCGTGACTTGGGTTCTAACCTGTTGCCT (site ACCGTGACTAG)	1.96
CGGGCCACTTGGGTTCTAACCTGTTGCCT (site CGGGCCACTAG)	0.442
